According to patent publication US10000534B2, “Peptide having osteoblast proliferation activity and periodontal ligament fibroblast proliferation activity, and use of same” (CAREGEN CO., LTD., priority 2014, dated 2018):
Ends that are not written are not given here.

Assays:
C2C12 cells = test: MTT assay of cell proliferation in C2C12 cells; format: cell-based; details: peptide 10 μg/ml, 72 hours, serum-free, FIGS. 1a and 1b
Protocol: In order to analyze the BMP2-like action of the sequence peptides synthesized in synthesis example 1, MTT assay was conducted using C2C12 cells, which are a myoblast cell line, to investigate the proliferation promoting effect.
The C2C12 cells were cultured in Dulbecco's modified Eagle's medium (DMEM, Gibco) supplemented with 10% fetal bovine serum (FBS, Sigma) using a 500 ml-flask for tissue culture. The cultured cell lines were carefully detached from the bottom of the culture container using a 1% trypsin solution, followed by centrifugation, thereby obtaining only cell precipitates. The cell precipitates were re-suspended in DMEM culture medium supplemented without FBS, and then added to a 96-well plate for tissue culture at 1×10^3 cells per each well, followed by culture under conditions of 37° C. and 5% CO2 for 24 hours. After 24 hours, the medium was changed with the same culture liquid completely excluding serum, and then the blank sample and each of the synthetic peptide were dissolved sterile in distilled water, and the mixture was cultured at a concentration of 10 μg/ml for 72 hours under the same conditions. The MTT sample was added to the culture-completed well, and after 4 hour, the formed formazan was dissolved in DMSO, and then the absorbance was measured at 560 nm to determine cell proliferation.

MC3T3-E1 cells [1] = test: Alkaline phosphatase (ALP) staining of MC3T3-E1 cells (osteoblast differentiation); format: cell-based; details: MC3T3-E1, peptide 10 ug/ml and 50 ug/ml, 13 days; FIGS. 2a and 2b
Protocol: In order to analyze the BMP2-like action of the sequence peptides synthesized in synthesis example 1, the osteoblast differentiation promoting effect was investigated through alkaline phosphatase (ALP) staining of MC3T3-E1 cells, which are a pre-osteoblast cell line. The MC3T3-E1 cells were placed in a 24-well plate to 3×10^4 cells, and then cultured for 24 hours under conditions of 37° C. and 5% CO2. After 24 hours, the alpha-MEM medium containing 10% FBS and 50 ug/ml ascorbic acid+100 mM b-glycerophosphate was treated with the synthetic peptides at concentrations of 10 ug/ml and 50 ug/ml, and then the culture was conducted for 13 days while the medium was exchanged every three days. The culture-completed plate well was washed two times with PBS, and then the cells were immobilized with an immobilization buffer, in which acetone, 37% formaldehyde, and citric acid solution were mixed, for 30 seconds. The following staining was carried out using the leukocyte alkaline phosphatase staining kit (SIGMA).
The cells were treated for 2 minutes with an FBB-alkaline solution and a sodium nitrite solution mixed at 1:1, and then treated with a buffer composed of distilled water and naphthol AS-BI alkaline solution, followed by color development in an incubator at 37° C. for 1 hour.

MC3T3-E1 cells [2] = test: RT-PCR of osteogenic differentiation-related genes (BSP, COL1A1) in MC3T3-E1 cells; format: cell-based; details: MC3T3-E1, peptide 10 ug/ml and 50 ug/ml, 2 days; FIGS. 3a and 3b
Protocol: In order to investigate the mRNA expression levels of osteogenic differentiation-related genes, bone sialoprotein (BSP) and collagen type I alpha 1 (COL1A1) by the sequence peptides synthesized in synthesis example 1, MC3T3-E1 cells were placed in a 6-well plate to 2×10^5 cells, and then cultured for 24 hours under conditions of 37° C. and 5% CO2. After 24 hours, the medium containing FBS 10% was treated with the respective peptides at 10 ug/ml and 50 ug/ml, and BMP2 used at a positive control at 100 ng/ml. After 2 days, the washing was conducted with PBS, and then RNA was isolated using Easy blue (Intron). cDNA was synthesized using 1 ug of RNA and RT premixture (Intron), and PCR was conducted using PCR premixture (Bioneer), and then the resulting product was loaded on agarose gel to investigate the mRNA expression degree of each gene.

MC3T3-E1 cells [3] = test: Western blotting of pSmad1/5/8 in MC3T3-E1 cells; format: cell-based; details: MC3T3-E1, peptide 10 ug/ml, 15 and 30 minutes, FIGS. 4a and 4b
Protocol: In order to investigate whether pSmad1/5/8, which is a signal involved in the promotion of osteogenic differentiation, was activated by the present peptides, MC3T3-E1 cells were placed in a 6-well plate at 2×10^5 cells, and then cultured for 24 hours under the conditions of 37° C. and 5% CO2. After 24 hours, the medium was exchanged with a medium without serum, followed by culture for 24 hours. Then, the resulting product was treated with the respective peptides at 10 ug/ml, and BMP2 used at a positive control at 50 ng/ml. After 15 minutes and 30 minutes, the washing was conducted with PBS, and then a lysis buffer was added to obtain proteins through lysis, followed by western blotting.

Balb/c mouse = test: Collagen sponge transplant in Balb/c mouse, H&E staining of osteocytes permeation and differentiation; format: in vivo; details: collagen sponge with 100 ug peptide transplanted into the back, 2 weeks, FIG. 5
Protocol: A collagen sponge with a size of 0.5 mm×0.5 mm was wetted with 100 ug of the peptide of SEQ ID NO: 1, transplanted into the back of the Balb/c mouse, and then left for 2 weeks. Thereafter, the collagen sponge was extracted, and then made into a paraffin block, and then the degree of osteocytes permeation and differentiation in the collagen sponge were measured through H&E staining (FIG. 5).

[4] = test system: human periodontal ligament fibroblasts; test: SRB assay of human periodontal ligament fibroblast growth; format: cell-based; details: peptide 0.05-10 ug/ml, 72 hours, serum-free; FIGS. 6a and 6b
Protocol: In order to investigate the effects of the peptides of SEQ ID NO: 1 and SEQ ID NO: 2 on the periodontium, the human periodontal ligament fibroblast promoting effects were analyzed. The periodontal ligament fibroblasts were placed in a 48-well plate to 1×10^3 cells, and then cultured for 24 hours under conditions of 37° C. and 5% CO2. After 24 hours, the exchange with the medium not containing serum was conducted, followed by culture for 6 hours. Thereafter, the resulting product was treated with the peptides at concentrations of 0.05-10 ug/ml and BMP-2 and IGF-1 used as positive controls at a concentration of 0.2 ug/ml, followed by culture for 72 hours. After the completion of the culture, the culture supernatant was removed and the cells were immobilized using ethanol. After the cell immobilization was ended, the cells were washed three times with phosphate buffer saline (PBS). After the wash solution was removed, the cells were treated with colorimetric SRB solution, and sufficiently washed with 1% acetic acid. Then, the cells were observed using a microscope to observe the conditions of living cells. The absorbance for the solution decolorized with 20 mM tris was read at UV light of 560 nm, thereby measuring the survival conditions of cells.

[5] = test system: human periodontal ligament fibroblasts; test: Western blotting of p-PI3K and p-Akt in periodontal ligament fibroblasts; format: cell-based; details: peptide 10 ug/ml, 5-15 minutes, FIGS. 7a and 7b
Protocol: In order to investigate the human periodontal ligament fibroblast growth promoting effects by the peptides of SEQ ID NO: 1 and SEQ ID NO: 2, the phosphorylation degrees of related signaling molecules were analyzed using western blotting. The periodontal ligament fibroblasts were placed in a 6-well plate to 5×10^5 cells, and then cultured for 24 hours under conditions of 37° C. and 5% CO2. Thereafter, the resulting product was treated with the peptides at a concentration of 10 ug/ml and bFGF used as a positive control at a concentration of 0.2 ug/ml. Then, the cells were collected by culture times of 5-15 minutes, and the total proteins were isolated, and then western blotting was conducted with respect to p-PI3K and p-Akt.

[6] = test system: periodontal ligament fibroblasts; test: RT-PCR of COL1A1 and DSPP mRNA in periodontal ligament fibroblasts; format: cell-based, human; details: peptide 1 and 10 ug/ml, 72 hours, FIGS. 8a and 8b
Protocol: In order to investigate the periodontal ligament fibroblast activity promoting effects by the peptides of SEQ ID NO: 1 and SEQ ID NO: 2, the mRNA expression of related genes was analyzed using RT-PCR. The periodontal ligament fibroblasts were placed in a 24-well plate to 1.5×10^4 cells, and then cultured for 24 hours under conditions of 37° C. and 5% CO2. After 24 hours, the exchange with the medium not containing serum was conducted, followed by culture for 24 hours. Thereafter, the resulting product was treated with the peptides at concentrations of 1 and 10 ug/ml and BMP-2 and IGF-1 used as positive controls at a concentration of 0.2 ug/ml, followed by culture for 72 hours. After the completion of the culture, the washing was conducted with PBS, and then RNA was isolated using Easy blue (Intron). cDNA was synthesized using 1 ug of RNA and RT premixture (Intron), and PCR was conducted using PCR premixture (Bioneer), and then the resulting product was loaded on agarose gel to investigate the mRNA level of each marker.

Sequence | growth of osteoblasts (cell proliferation, MTT, absorbance at 560 nm) (C2C12 cells) | ALP expression (ALP staining) (MC3T3-E1 cells [1]) | mRNA expression levels of osteogenic differentiation genes (BSP, COL1A1) (MC3T3-E1 cells [2]) | phosphorylation of Smad1/5/8 (MC3T3-E1 cells [3]) | bone formation promoting effect (osteocytes permeation, proliferation and differentiation in collagen sponge, H&E) (Balb/c mouse) | periodontal ligament fibroblast cell growth (SRB, absorbance 560 nm) [4] | phosphorylation level of Akt [5] | phosphorylation level of PI3K [5] | mRNA expression level of alpha-1 type I collagen (COL1A1) [6] | mRNA expression level of dentin sialophosphoprotein (DSPP) [6]
RSLNLRDSQKS [SEQ ID NO: 1] | significantly promoted the growth of osteoblasts | increase in the ALP expression | increases in the mRNA expression levels | promotion of the phosphorylation of Smad1/5/8 | bone formation promoting effect | cell growth increase in a dose-dependent manner | increases in the phosphorylation levels | increases in the phosphorylation levels | increases in the mRNA expression levels | increases in the mRNA expression levels
FDMGAYKSSK [SEQ ID NO: 2] | significantly promoted the growth of osteoblasts | increase in the ALP expression | increases in the mRNA expression levels | promotion of the phosphorylation of Smad1/5/8 |  | cell growth increase in a dose-dependent manner | increases in the phosphorylation levels | increases in the phosphorylation levels | increases in the mRNA expression levels | increases in the mRNA expression levels
